The source of these data is ChEMBL document CHEMBL1121977, “alpha 2 adrenoceptors: classification, localization, mechanisms, and targets for drugs” (J Med Chem, 1982).

For orientation: Ki means the dissociation constant of the complex between target and ligand, obtained from inhibition or displacement. Read a high Ki as weaker binding.

The target in this assay is T1, Adrenergic receptor alpha-2 (Rattus norvegicus, UniProt P22086+P19328+P22909).
T1 sequence (P22086 whole entry): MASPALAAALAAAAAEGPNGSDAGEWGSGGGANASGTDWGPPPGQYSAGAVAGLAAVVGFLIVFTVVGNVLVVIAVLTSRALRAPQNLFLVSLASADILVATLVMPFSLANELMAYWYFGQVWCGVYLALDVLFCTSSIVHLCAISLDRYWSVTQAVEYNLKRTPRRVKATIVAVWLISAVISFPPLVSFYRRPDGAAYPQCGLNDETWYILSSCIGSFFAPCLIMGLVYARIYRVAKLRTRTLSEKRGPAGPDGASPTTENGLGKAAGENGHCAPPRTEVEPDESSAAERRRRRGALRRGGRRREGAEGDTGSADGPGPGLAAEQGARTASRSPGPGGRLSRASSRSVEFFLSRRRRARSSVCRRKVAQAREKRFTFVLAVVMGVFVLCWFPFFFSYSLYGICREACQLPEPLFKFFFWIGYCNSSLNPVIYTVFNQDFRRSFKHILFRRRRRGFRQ
T1 sequence (P19328 whole entry): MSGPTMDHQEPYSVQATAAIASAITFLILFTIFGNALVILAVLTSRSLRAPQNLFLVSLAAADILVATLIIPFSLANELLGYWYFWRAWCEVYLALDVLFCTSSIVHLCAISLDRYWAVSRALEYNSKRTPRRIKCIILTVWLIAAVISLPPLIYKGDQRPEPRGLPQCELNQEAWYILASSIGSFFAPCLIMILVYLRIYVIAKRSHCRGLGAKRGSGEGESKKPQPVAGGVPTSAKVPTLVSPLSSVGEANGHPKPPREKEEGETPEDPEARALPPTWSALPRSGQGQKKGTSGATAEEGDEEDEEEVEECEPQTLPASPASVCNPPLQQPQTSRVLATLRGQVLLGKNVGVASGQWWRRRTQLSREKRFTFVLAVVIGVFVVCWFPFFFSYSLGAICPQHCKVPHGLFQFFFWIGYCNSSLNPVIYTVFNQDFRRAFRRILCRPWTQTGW
T1 sequence (P22909 whole entry): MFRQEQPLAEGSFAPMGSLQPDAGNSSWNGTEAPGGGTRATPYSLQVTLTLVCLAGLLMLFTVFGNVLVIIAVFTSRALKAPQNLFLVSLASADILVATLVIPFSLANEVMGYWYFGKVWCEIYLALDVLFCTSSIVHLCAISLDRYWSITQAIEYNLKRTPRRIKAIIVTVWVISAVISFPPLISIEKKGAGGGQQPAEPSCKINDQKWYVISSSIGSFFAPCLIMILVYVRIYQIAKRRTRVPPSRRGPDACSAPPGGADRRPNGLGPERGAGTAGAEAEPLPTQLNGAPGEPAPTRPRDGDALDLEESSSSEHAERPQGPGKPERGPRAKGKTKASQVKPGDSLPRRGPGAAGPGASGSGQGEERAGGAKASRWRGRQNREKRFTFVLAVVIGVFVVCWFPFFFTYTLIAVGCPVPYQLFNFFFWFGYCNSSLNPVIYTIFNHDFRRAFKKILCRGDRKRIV
In words: Displacement of [3H]clonidine from Alpha-2 adrenergic receptor of rat brain membranes. Type of assay: cell membranes, Membrane.
With `COc1cccc(OC)c1OCCNCC1COc2ccccc2O1` (centres undefined), the Ki is given as 200 nM. That is a sub-micromolar value.
In the case of `C[C@H](N)[C@H](O)c1ccc(O)c(O)c1` [LEVONORDEFRIN], the Ki is recorded as 7.7 nM.
`c1ccc(CC2=NCCN2)cc1` [TOLAZOLINE] displayed a Ki of 180 nM.
Take `c1cc2c(c(NC3=NCCN3)c1)CCCC2` [TRAMAZOLINE]: the Ki was determined as 4.2 nM.
